In PMC3265452 (PLoS Neglected Tropical Diseases, 2012):
Counter-ions that a name gives are not always drawn.

These molecules were tested against AaDOP2 (Aedes aegypti, UniProt H6D5H2) (assay: AaDOP2 antagonist screen of the LOPAC1280 library (HEK-CRELuc-Aadop2 cells, luminescence)). Details: not given.
Type: cell-based

Chain of AaDOP2 (H6D5H2 1-476): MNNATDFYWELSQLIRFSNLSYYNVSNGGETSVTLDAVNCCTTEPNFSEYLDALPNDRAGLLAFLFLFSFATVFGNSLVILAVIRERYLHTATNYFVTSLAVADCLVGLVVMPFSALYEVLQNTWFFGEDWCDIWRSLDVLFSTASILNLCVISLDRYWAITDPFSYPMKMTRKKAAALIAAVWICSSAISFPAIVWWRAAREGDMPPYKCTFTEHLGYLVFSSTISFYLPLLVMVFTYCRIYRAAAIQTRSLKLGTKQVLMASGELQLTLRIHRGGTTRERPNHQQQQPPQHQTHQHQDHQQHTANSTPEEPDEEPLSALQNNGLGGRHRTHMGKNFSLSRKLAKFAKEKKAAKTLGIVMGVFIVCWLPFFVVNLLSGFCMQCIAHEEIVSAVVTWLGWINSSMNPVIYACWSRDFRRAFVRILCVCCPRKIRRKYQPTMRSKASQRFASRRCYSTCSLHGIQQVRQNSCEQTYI

| Molecule | Compound effect (percent receptor signaling in presence of test compound, relative lux units relative to the SCH23390 control) |
| --- | --- |
| O=C(C1CCCCC1)N1CC(=O)N2CCc3ccccc3C2C1 (stereo not drawn) [Compound 947, Praziquantel] | 81 |
| CC(=O)[C@H]1CC[C@H]2[C@@H]3CC[C@H]4C[C@H](O)CC[C@]4(C)[C@H]3C(=O)C[C@]12C [Compound 949, 5alpha-Pregnan-3alpha-ol-11,20-dione] | 89 |
| COc1ccc2[nH]cc(CCN(C)C)c2c1.O=C(O)C(=O)O [Compound 745, 5-Methoxy DMT oxalate] | 104 |
| COc1ccccc1NC(=O)Nc1nc(-c2cccnc2)nc2ccccc12 [Compound 1253, VUF 5574] | 111 |
| O=C(O)c1ccccc1Nc1cccc(OCc2ccc3ccccc3n2)c1 [Compound 1108, SR 2640] | 91 |
| O=C(c1ccc(OCCN2CCCCC2)cc1)c1c(-c2ccc(O)cc2)sc2cc(O)ccc12 [Compound 1042, Raloxifene hydrochloride] | 103 |
| C[N+](C)(C)CCCCCC[N+](C)(C)C.[Cl-].[Cl-] [Compound 582, Hexamethonium dichloride] | 94 |
| NC(=O)c1ncn([C@@H]2O[C@H](CO)[C@@H](O)[C@H]2O)c1O [Compound 755, Mizoribine] | 94 |
| C#CCN(C)Cc1ccccc1 [Compound 975, Pargyline hydrochloride] | 95 |
| CCCCCCCCCCCCCC(=O)O[C@@H]1[C@@H](C)[C@@]2(O)[C@@H](C=C(CO)C[C@]3(O)C(=O)C(C)=C[C@@H]23)[C@@H]2C(C)(C)[C@]12OC(C)=O [Compound 976, Phorbol 12-myristate 13-acetate] | 12 |
| CNC(=O)c1cc2c(cn1)[nH]c1ccccc12 [Compound 502, N-Methyl-beta-carboline-3-carboxamide] | 80 |
| N=C(N)NC(=O)c1nc(Cl)c(N)nc1N [Compound 84, Amiloride hydrochloride] | 110 |
| O=c1[nH]cc(F)c(=O)[nH]1 [Compound 526, 5-Fluorouracil] | 156 |
| Cl.Cl.Clc1cccc(N2CCNCC2)c1 [Compound 273, 1-(3-Chlorophenyl)piperazine dihydrochloride] | 99 |
| O=C(O)[C@H]1C[C@H](C(=O)O)N1 (relative stereo) [Compound 146, trans-Azetidine-2,4-dicarboxylic acid] | 110 |
| NC(=O)CI [Compound 633, Iodoacetamide] | 84 |
| c1ccc(-c2ccccn2)nc1 [Compound 408, 2,2'-Bipyridyl] | 94 |
| Cl.Cl.NNCc1cccc(O)c1 [Compound 612, 3-Hydroxybenzylhydrazine dihydrochloride] | 104 |
| CN1[C@@H]2CC[C@H]1CC(OC(=O)c1c[nH]c3ccccc13)C2.Cl (stereo partly drawn) [Compound 1222, 3-Tropanyl-indole-3-carboxylate hydrochloride] | 89 |

| Molecule | Compound effect (percent receptor signaling in presence of test compound, relative lux units relative to the SCH23390 control) |
| --- | --- |
| CCCn1c(=O)c2c(ncn2C)n(CCC)c1=O [Compound 450, 1,3-Dipropyl-7-methylxanthine] | 123 |
| Nc1ccc(CCNc2ncnc3c2ncn3[C@@H]2O[C@H](CO)[C@@H](O)[C@H]2O)cc1 [Compound 140, N6-2-(4-Aminophenyl)ethyladenosine] | 97 |
| CNCCC(Oc1ccccc1OC)c1ccccc1 (stereo not drawn) [Compound 883, Nisoxetine hydrochloride] | 84 |
| COc1cc(-c2ccc(=O)[nH]n2)ccc1OC(F)F [Compound 1278, Zardaverine] | 125 |
| CCN(CC)CCCC(C)Nc1ccnc2cc(Cl)ccc12 (stereo not drawn) [Compound 286, Chloroquine diphosphate] | 83 |
| N#C/C(=C\c1c[nH]c2ccccc12)C(=O)c1ccc(O)c(O)c1 [Compound 1182, Tyrphostin AG 808] | 101 |
| CC1(C)CCC=[N+]1[O-] [Compound 395, 5,5-Dimethyl-1-pyrroline-N-oxide] | 94 |
| Cc1ccccc1/C=C/C1=NCCN1 [Compound 783, Metrazoline oxalate] | 91 |
| NNc1nncc2ccccc12 [Compound 580, Hydralazine hydrochloride] | 100 |
| CN(C)c1ccc(/C=C2\C(=O)Nc3ccccc32)cc1 [Compound 1121, SU 4312] | 51 |
| N#CC(C#N)=Cc1ccc(O)c(O)c1 [Compound 1196, Tyrphostin 23] | 79 |
| CC(N)(Cc1ccc(O)cc1)C(=O)O (racemic) [Compound 1, DL-alpha-Methyl-p-tyrosine] | 95 |
| CNc1ncnc2c1ncn2[C@H]1C[C@H](OP(=O)(O)O)[C@@H](COP(=O)(O)O)O1 [Compound 764, MRS 2179] | 105 |
| CC[C@H]1CN2CCc3cc(OC)c(OC)cc3[C@@H]2C[C@@H]1C[C@H]1NCCc2cc(OC)c(OC)cc21 [Compound 478, Emetine dihydrochloride hydrate] | 14 |
| Nc1nc2ccc(Cl)cc2c2nc(-c3ccco3)nn12 [Compound 345, CGS-15943] | 117 |
| N=C(NCCC[C@H](N)C(=O)O)N[N+](=O)[O-] [Compound 858, NG-Nitro-L-arginine] | 95 |
| CCCNC[C@H](O)COc1ccccc1C(=O)CCc1ccccc1.Cl [Compound 999, (S)-(-)-propafenone hydrochloride] | 77 |
| COc1cccc2c1[C@@H]1CN(CCCCn3c(=O)[nH]c4c(sc5ncc(-c6ccccc6)nc54)c3=O)C[C@@H]1CO2 [Compound 517, Fiduxosin hydrochloride] | 69 |
| c1ccc(C2CC2)c(OCC2=NCCN2)c1 [Compound 348, Cirazoline hydrochloride] | 74 |

Same assay, conditions: 10 µM compound, 300 nM dopamine, 2 hr

| Molecule | % of the SCH23390 effect (percent inhibition of receptor response relative to the SCH23390 control) [%] |
| --- | --- |
| CC1(C)C(=O)N(CCN2CCC(C(=O)c3ccc(F)cc3)CC2)c2ccccc21.Cl [Compound 698, LY-310,762 hydrochloride] | 81 |

Same assay, conditions: 10 µM compound, 300 nM dopamine, 2 hr; hit = compound effect <20

| Molecule | Compound effect (percent receptor signaling in presence of test compound, relative lux units relative to the SCH23390 control) [%] |
| --- | --- |
| Cl.NCCCC(N)(C(=O)O)C(F)F (racemic) [Compound 467, DL-alpha-Difluoromethylornithine hydrochloride] | 94 |
| C=CC(N)CCC(=O)O (racemic) [Compound 1256, (±)-gamma-Vinyl GABA] | 108 |
| Cc1nc(N=Nc2ccc(S(=O)(=O)O)cc2S(=O)(=O)O)c(COP(=O)(O)O)c(C=O)c1O [Compound 1018, PPADS] | 103 |
| COc1ccccc1N1CCN(CCN(C(=O)c2ccc(I)cc2)c2ccccn2)CC1.Cl [Compound 832, p-MPPI hydrochloride] | 73 |
| SKF 83565 hydrobromide [Compound 1096] | 57 |
| Br.COc1ccccc1N1CCN(CCCCN2C(=O)c3ccccc3C2=O)CC1 [Compound 848, NAN-190 hydrobromide] | 42 |
| Br.Br.N=C(N)SCCc1cccc(CCSC(=N)N)c1 [Compound 977, 1,3-PBIT dihydrobromide] | 117 |
| CSC(=N)N.CSC(=N)N.O=S(=O)(O)O [Compound 756, S-Methylisothiourea hemisulfate] | 99 |
| Br.C=CCN1CCc2c(cc(O)c(O)c2Cl)C(c2ccccc2)C1 (racemic) [Compound 336, (±)-Chloro-APB hydrobromide] | 77 |
| CC1(C)C(=O)N(CCN2CCC(C(=O)c3ccc(F)cc3)CC2)c2ccccc21.Cl [Compound 698, LY-310,762 hydrochloride] | 19 |
| CC1CNCCN1S(=O)(=O)c1cccc2cnccc12.Cl.Cl (stereo not drawn) [Compound 620, H-7 dihydrochloride] | 38 |
| N.S=C(S)N1CCCC1 [Compound 984, Ammonium pyrrolidinedithiocarbamate] | 85 |
| CCCN1CCC[C@@H]2Cc3nc(N)ncc3C[C@H]21 [Compound 1038, Quinelorane dihydrochloride] | 99 |

Same assay, conditions: read-out: % of the SCH23390 effect (percent inhibition of receptor response relative to the SCH23390 control)

| Molecule | inhibition at 10 µM [%] |
| --- | --- |
| CCCCCCCCCCCCCC(=O)O[C@@H]1[C@@H](C)[C@@]2(O)[C@@H](C=C(CO)C[C@]3(O)C(=O)C(C)=C[C@@H]23)[C@@H]2C(C)(C)[C@]12OC(C)=O [Compound 976, Phorbol 12-myristate 13-acetate] | 88 |
| CC[C@H]1CN2CCc3cc(OC)c(OC)cc3[C@@H]2C[C@@H]1C[C@H]1NCCc2cc(OC)c(OC)cc21 [Compound 478, Emetine dihydrochloride hydrate] | 86 |
